Experimental data taken from US20260001915A1, “METHODS FOR TREATING OBESITY WITH AN MC4R AGONIST” (RHYTHM PHARMACEUTICALS, INC., priority 2022, published 2026).

Tests used:
[1] = Phase 2 hypothalamic obesity study: daily hunger questionnaire (most hungry last 24 hrs), weekly average of daily most hunger score; assay type: in vivo, human; conditions: patients ≥12 years of age
Description: (§1) The secondary endpoints included determination of: • Composite proportion of patients aged ≥6 to <18 years with ≥0.2 reduction of BMI Z-score and patients aged ≥18 years with 5% reduction of body weight from baseline after 16 weeks of setmelanotide • Proportion of patients aged ≥6 to <18 years with ≥0.2 reduction of BMI Z-score from baseline after 16 weeks of setmelanotide • Proportion of patients aged 18 years with 5% reduction of body weight from baseline after 16 weeks of setmelanotide • Change from baseline in waist circumference in patients aged 18 years after 16 weeks of setmelanotide treatment. • Change in hunger in response to 16 weeks of setmelanotide treatment as measured by change from baseline in daily and global hunger scores. • Safety and tolerability assessed by the frequency and severity of AEs, vital signs, and laboratory evaluations. • Change from baseline in metabolic parameters following treatment with setmelanotide, including fasting glucose, HbA1c, lipid profiles (total-, high-density lipoprotein [HDL]-, and low-density lipoprotein [LDL]-cholesterol, triglycerides). • Proportion of patients, regardless of age, with ≥5% body weight loss from baseline after 16 weeks of setmelanotide treatment compared to a historic control of <5% in this patient population. • Change from baseline in BMI, weight, and waist circumference, regardless of age, after 16 weeks of setmelanotide treatment. • Change from baseline in BMI Z-score in patients aged 6 to 12 years and in those aged 6 to <18 years.
All screening evaluations were completed and reviewed to confirm that potential patients meet all eligibility criteria. […]
The daily hunger questionnaire as assessed in patients ≥12 years of age also achieved a clinically meaningful diminution quantifying the most hungry the patient has experienced over the last 24 hours, with a mean reduction in the hunger score of −2.66 after 16 weeks. […]

[2] = patients with POMC and LEPR deficiency obesity; cited from earlier work
[3] = clinical trials; cited from earlier work
[4] = Phase 2 hypothalamic obesity study: safety and tolerability (TEAEs, SAEs); assay type: in vivo, human
Description: as §1
All screening evaluations were completed and reviewed to confirm that potential patients meet all eligibility criteria. Exemplary evaluations included a medical history review, physical examination, comprehensive skin examination, measurement of height, weight, waist circumference, body composition assessment, pregnancy test (if applicable), daily hunger questionnaires, global hunger assessment, and evaluation of PHQ-A or PHQ-9, C—SSRS, SF-12 or SF-10, IWQOL, FSH, HbA1c, and fasting lipid panel. Adjustments were made depending upon specific circumstances and in consultation with the investigator. Immediate safety concerns were discussed immediately upon occurrence or awareness to determine if the patient should continue or discontinue study treatment.
The most commonly reported TEAE was nausea (63.6%).

[5] = Phase 2 open-label study of setmelanotide SC daily in patients with hypothalamic obesity: BMI, BMI Z-score, body weight after 16 weeks; assay type: in vivo, human; conditions: for Weight (kg), Week 16 Actual, Mean (SD): 16 weeks of treatment
Experimental: This example describes a phase 2 study that seeks to evaluate the change in body weight in response to an exemplary MC4R agonist, e.g., setmelanotide (i.e., SEQ ID NO: 140) administered subcutaneously (SC) daily in patients with hypothalamic obesity (HO).
Setmelanotide, 10 mg/mL in a sterile solution for injection, was provided at 1.0, 2.0, 3.0 mg QD for patients 6 to <16 years of age, and 2.0 to 3.0 mg QD for patients ≥16 years of age.
The primary endpoint of this study was to identify a proportion of patients with ≥5% reduction from baseline in BMI after 16 weeks of setmelanotide treatment compared to a historic control of <5% in this patient population.
as §1
This study describes a Phase 2, multicenter, open-label, proof of concept study designed to assess the effect of setmelanotide on weight loss within a population affected by HO. Approximately 15 patients aged 6 to 40 years, inclusive, were enrolled across approximately 3-5 clinical sites in the United States (US).
Patients who were determined to be eligible, based on Screening assessments, returned to the clinic for the Baseline Visit (Visit 2) and received the first setmelanotide dose. The starting setmelanotide dose was dependent on patient age; however, for all patients, the setmelanotide dose was titrated to a final dose of 3.0 mg/day (initial titration phase), as follows
• Starting at Baseline (Day 1; Visit 2) through approximately Day 14, patients received setmelanotide 1.0 mg/day. • Starting at approximately Day 15 through 28, patients received setmelanotide 2.0 mg/day.
• Starting at Baseline (Day 1; Visit 2) through approximately Day 14, patients received setmelanotide 2.0 mg/day. • Starting at approximately Day 15, patients received setmelanotide 3.0 mg/day; patients continue to receive setmelanotide 3.0 mg/day for 14 weeks.
Patients returned to the study center for Visits 3, 4, and 5 (Weeks 4, 8, and 12, respectively), with each of these visits conducted approximately 4 weeks apart. All patients returned to the study center at Week 16 (Visit 6) and received the last setmelanotide injection. Study endpoints were analyzed at Visit 6.
All patients received open-label setmelanotide in this study. Setmelanotide was provided as a preserved, multidose solution for injection to be administered SC, QD. It was formulated as a 10 mg/mL sterile, preserved, clear to slightly opalescent, colorless to slightly colored solution, practically free of visible particles. […]

[6] = Long-term extension study of setmelanotide, hypothalamic obesity subpopulation; assay type: in vivo, human
Experimental: This example describes a long-term extension study of the use of setmelanotide in treating hypothalamic obesity, and further to investigate the safety and tolerability of chronic setmelanotide administration for up to 5 years from initiation of treatment.
Setmelanotide, 10 mg/mL in a sterile solution, QD. Dosing was continued at the dosage of the cessation of the previous setmelanotide trial, (e.g., 3.0 mg QD for most patients enrolled in the setmelanotide trial for treating subjects with hypothalamic obesity), unless a change is determined necessary by the Investigator, e.g., for safety, tolerability, TEAE, SAE, or other concern.
The objective of this study was to examine the long-term safety parameters of chronic, daily subcutaneous setmelanotide injections for a period of up to 5 years. In order to assess this primary endpoint, the occurrence of TEAEs and SAEs were tracked, in addition to other clinical data including any new emergence of injection site reactions, changes in resting heart rate or blood pressure, laboratory workup (e.g., fasting glucose, HbA1c, lipid profiles (total-, high-density lipoprotein [HDL]-, and low-density lipoprotein [LDL]-cholesterol, triglycerides), liver enzymes, changes in physical examination (e.g., weight, BMI, BMI Z-Score), and cardiac changes (e.g., as measured by an electrocardiogram (ECG). […]

## CC(=O)N[C@@H](CCCNC(=N)N)C(=O)N[C@H]1CSSC[C@@H](C(N)=O)NC(=O)[C@H](Cc2c[nH]c3ccccc23)NC(=O)[C@H](CCCNC(=N)N)NC(=O)[C@@H](Cc2ccccc2)NC(=O)[C@H](Cc2cnc[nH]2)NC(=O)[C@@H](C)NC1=O [setmelanotide, Ac-Arg-c(Cys-D-Ala-His-D-Phe-Arg-Trp-Cys)-NH2]
[1]; N 7
  Weekly average of daily most hunger score, Week 16 Actual, Median: 5.67
  Weekly average of daily most hunger score, Week 16 Change from Baseline, Median: −1.71
[1]; N 7 at Week 16
  Weekly average of daily most hunger score (Most Hungry Last 24 hrs), Week 16 Actual, Mean (SD): 4.55 (2.84)
[2]
  Reduction in hunger: statistically significant and clinically meaningful reduction in hunger
  Weight loss: rapid and sustained significant and clinically meaningful weight loss
[3]
  Effect on blood pressure: has not been shown to adversely affect blood pressure
[4]; 16 weeks, up to 3.0 mg/day SC
  Safety and tolerability of setmelanotide treatment: consistent with established data
[4]; eleven patients
  Incidence of nausea (most commonly reported TEAE): 63.6%
  Skin hyperpigmentation, e.g., melanocytic naevus, patients reporting: two of the eleven patients
[4]; eleven patients, related or unrelated to administration
  Patients with at least one treatment emergent adverse event (TEAE): All eleven of the patients
[4]; one patient, able to complete the study
  SAE related to Clostridium dificile colitis: classified as severe, but not related to setmelanotide therapy
[5]; 6-<18 years (N = 9)
  Weight (kg), Week 16 Actual, Median: 93.07 kg
  Weight (kg), Week 16 Change from Baseline, Mean (SD): -17.83 kg
  Weight (kg), Week 16 Change from Baseline, Median: -16.77 kg
  Weight, Week 16 Percent Change from Baseline, Mean (SD): −17.80%
  Weight, Week 16 Percent Change from Baseline, Median: −14.12%
  Weight (kg), Week 16 Actual, Mean (SD): 89.98 kg
[5]; 9 completers at 16 weeks
  Mean BMI reduction: −19.5%
[5]; FAS set, after 16 weeks
  Mean change in BMI Z score: −1.1 point
[5]; Total (N = 11)
  Weight (kg), Week 16 Actual, Median: 94.27 kg
  Weight (kg), Week 16 Change from Baseline, Mean (SD): -15.87 kg
  Weight (kg), Week 16 Change from Baseline, Median: -13.90 kg
  Weight, Week 16 Percent Change from Baseline, Mean (SD): −15.79%
  Weight, Week 16 Percent Change from Baseline, Median: −13.68%
  Weight (kg), Week 16 Actual, Mean (SD): 91.22 kg
[5]; after 16 weeks of setmelanotide, SD 7.9%
  Mean percent change in body weight: −17.8%
[5]; all patients less than 18 years old, 16 weeks
  Reduction in BMI Z score: statistically significant reduction in BMI Z score
[5]; completers (n=9), 16 weeks, p<0.0001
  Proportion of patients achieving at least a 10% reduction in BMI: 100%
[5]; full analysis set (n=11), 16 weeks, p<0.0001
  Proportion of patients achieving greater than or equal to 5% reduction in BMI (primary endpoint): 100%
[5]; pediatric and adult patients, 16 weeks of daily SC therapy
  Reduction in weight: statistically significant and clinically meaningful reduction in weight
[5]; ≥18 years (N = 2)
  Weight (kg), Week 16 Actual, Median: 96.78 kg
  Weight (kg), Week 16 Change from Baseline, Mean (SD): -7.02 kg
  Weight (kg), Week 16 Change from Baseline, Median: -7.02 kg
  Weight, Week 16 Percent Change from Baseline, Mean (SD): −6.76%
  Weight, Week 16 Percent Change from Baseline, Median: −6.76%
  Weight (kg), Week 16 Actual, Mean (SD): 96.78 kg
[6]; 5 patients from the Phase 2 study, additional 3-8 months
  BMI in long-term extension: all of the patients but one continued to further see reductions in BMI
[6]; relative to BMI at initiation of the Phase 2 study
  BMI of the fifth patient (increase in BMI in the extension period): did not return to his or her original BMI
